Reference: PubChem BioAssay (NCI)
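Exposure lasted 48 hours, with cells grown in 96-well plates and compounds tested at five concentrations. The concentration for 50% growth inhibition is given as GI50. TGI: concentration producing complete growth inhibition.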

How the values were obtained:
Experiment in all cases: NCI anticancer screen, dose series, 48 h
EKVX NSCLC = test system: EKVX NSCLC
HCT-15 colon = test system: HCT-15 colon
CCRF-CEM leukemia = test system: CCRF-CEM leukemia
UACC-257 melanoma = test system: UACC-257 melanoma
SK-MEL-2 melanoma = test system: SK-MEL-2 melanoma
COLO 205 colon = test system: COLO 205 colon
RPMI-8226 leukemia = test system: RPMI-8226 leukemia
MOLT-4 leukemia = test system: MOLT-4 leukemia
PC-3 prostate = test system: PC-3 prostate
HCT-116 colon = test system: HCT-116 colon
NCI-H522 lung = test system: NCI-H522 lung
CAKI-1 renal = test system: CAKI-1 renal
IGROV1 ovarian = test system: IGROV1 ovarian
SNB-19 CNS = test system: SNB-19 CNS
SW-620 colon = test system: SW-620 colon
HCC-2998 colon = test system: HCC-2998 colon
A549 NSCLC = test system: A549 NSCLC
HS 578T breast = test system: HS 578T breast
U251 CNS = test system: U251 CNS
SK-OV-3 ovarian = test system: SK-OV-3 ovarian
SF-268 CNS = test system: SF-268 CNS
K-562 leukemia = test system: K-562 leukemia
HL-60(TB) leukemia = test system: HL-60(TB) leukemia
UACC-62 melanoma = test system: UACC-62 melanoma
SF-539 CNS = test system: SF-539 CNS
SK-MEL-5 melanoma = test system: SK-MEL-5 melanoma
NCI/ADR-RES ovarian = test system: NCI/ADR-RES ovarian
MDA-MB-231 breast = test system: MDA-MB-231 breast
SR leukemia = test system: SR leukemia
HOP-62 NSCLC = test system: HOP-62 NSCLC
MCF7 breast = test system: MCF7 breast
TK-10 renal = test system: TK-10 renal
SNB-75 CNS = test system: SNB-75 CNS
ACHN renal = test system: ACHN renal
T-47D breast = test system: T-47D breast
LOX IMVI melanoma = test system: LOX IMVI melanoma
A498 renal = test system: A498 renal
NCI-H460 lung = test system: NCI-H460 lung
OVCAR-5 ovarian = test system: OVCAR-5 ovarian
786-0 renal = test system: 786-0 renal
NCI-H226 lung = test system: NCI-H226 lung
RXF 393 renal = test system: RXF 393 renal
OVCAR-3 ovarian = test system: OVCAR-3 ovarian
OVCAR-4 ovarian = test system: OVCAR-4 ovarian
BT-549 breast = test system: BT-549 breast
SN12C renal = test system: SN12C renal
KM12 colon = test system: KM12 colon
HOP-92 NSCLC = test system: HOP-92 NSCLC
OVCAR-8 ovarian = test system: OVCAR-8 ovarian
NCI-H23 lung = test system: NCI-H23 lung
HT29 colon = test system: HT29 colon
SF-295 CNS = test system: SF-295 CNS
SK-MEL-28 melanoma = test system: SK-MEL-28 melanoma
DU-145 prostate = test system: DU-145 prostate

SMILES: CCCCCCCC(=O)OCC/C=C/C1OC1C1OC(=O)/C=C\C=C\c2nc(oc2C)/C=C(/C)CCC2OC2C1OC(=O)NC(C)=O (stereo not drawn)
- GI50 (EKVX NSCLC): 41.9 nM
- TGI (EKVX NSCLC): 1640 nM
- GI50 (HCT-15 colon): 55.8 nM
- TGI (HCT-15 colon): 8880 nM
- GI50 (CCRF-CEM leukemia): 65.1 nM
- TGI (CCRF-CEM leukemia): 3980 nM
- GI50 (UACC-257 melanoma): 30.1 nM
- TGI (UACC-257 melanoma): 125 nM
- GI50 (SK-MEL-2 melanoma): 22.2 nM
- TGI (SK-MEL-2 melanoma): 64.7 nM
- GI50 (COLO 205 colon): 58.1 nM
- TGI (COLO 205 colon): 193 nM
- GI50 (RPMI-8226 leukemia): 24.1 nM
- TGI (RPMI-8226 leukemia): 1040 nM
- GI50 (MOLT-4 leukemia): 47 nM
- TGI (MOLT-4 leukemia): 1810 nM
- GI50 (PC-3 prostate): 27.2 nM
- TGI (PC-3 prostate): 1840 nM
- GI50 (HCT-116 colon): 9.22 nM
- TGI (HCT-116 colon): 368 nM
- GI50 (NCI-H522 lung): 19.2 nM
- TGI (NCI-H522 lung): 75.5 nM
- GI50 (CAKI-1 renal): 66.4 nM
- TGI (CAKI-1 renal): 1560 nM
- GI50 (IGROV1 ovarian): 26.2 nM
- TGI (IGROV1 ovarian): 918 nM
- GI50 (SNB-19 CNS): 60.5 nM
- TGI (SNB-19 CNS): 1160 nM
- GI50 (SW-620 colon): 39.3 nM
- TGI (SW-620 colon): 1070 nM
- GI50 (HCC-2998 colon): 20.8 nM
- TGI (HCC-2998 colon): 73.9 nM
- GI50 (A549 NSCLC): 26 nM
- TGI (A549 NSCLC): 2640 nM
- GI50 (HS 578T breast): 77.6 nM
- TGI (HS 578T breast): 221 nM
- GI50 (U251 CNS): 49.7 nM
- TGI (U251 CNS): 3110 nM
- GI50 (SK-OV-3 ovarian): 64.3 nM
- TGI (SK-OV-3 ovarian): 1330 nM
- GI50 (SF-268 CNS): 40.1 nM
- TGI (SF-268 CNS): 1740 nM
- GI50 (K-562 leukemia): 30.4 nM
- TGI (K-562 leukemia): 1510 nM
- GI50 (HL-60(TB) leukemia): 114 nM
- TGI (HL-60(TB) leukemia): 2070 nM
- GI50 (UACC-62 melanoma): 31.6 nM
- TGI (UACC-62 melanoma): 80.8 nM
- GI50 (SF-539 CNS): 39.6 nM
- TGI (SF-539 CNS): 81.9 nM
- GI50 (SK-MEL-5 melanoma): 24.8 nM
- TGI (SK-MEL-5 melanoma): 68.8 nM
- GI50 (NCI/ADR-RES ovarian): 165 nM
- TGI (NCI/ADR-RES ovarian): 1880 nM
- GI50 (MDA-MB-231 breast): 62.5 nM
- TGI (MDA-MB-231 breast): 6380 nM
- GI50 (SR leukemia): 17.3 nM
- TGI (SR leukemia): 890 nM
- GI50 (HOP-62 NSCLC): 68.6 nM
- TGI (HOP-62 NSCLC): 381 nM
- GI50 (MCF7 breast): 36.8 nM
- TGI (MCF7 breast): 481 nM
- GI50 (TK-10 renal): 39.1 nM
- TGI (TK-10 renal): 232 nM
- GI50 (SNB-75 CNS): 27.7 nM
- TGI (SNB-75 CNS): 76.5 nM
- GI50 (ACHN renal): 10.3 nM
- TGI (ACHN renal): 933 nM
- GI50 (T-47D breast): 42 nM
- TGI (T-47D breast): 161 nM
- GI50 (LOX IMVI melanoma): 37.2 nM
- TGI (LOX IMVI melanoma): 648 nM
- GI50 (A498 renal): 3.68 nM
- TGI (A498 renal): 9.27 nM
- GI50 (NCI-H460 lung): 19.2 nM
- TGI (NCI-H460 lung): 495 nM
- GI50 (OVCAR-5 ovarian): 19.3 nM
- TGI (OVCAR-5 ovarian): 104 nM
- GI50 (786-0 renal): 33 nM
- TGI (786-0 renal): 203 nM
- GI50 (NCI-H226 lung): 42.6 nM
- TGI (NCI-H226 lung): 161 nM
- GI50 (RXF 393 renal): 18.4 nM
- TGI (RXF 393 renal): 56.2 nM
- GI50 (OVCAR-3 ovarian): 53.7 nM
- TGI (OVCAR-3 ovarian): 142 nM
- GI50 (OVCAR-4 ovarian): 76.6 nM
- TGI (OVCAR-4 ovarian): 2210 nM
- GI50 (BT-549 breast): 46.6 nM
- TGI (BT-549 breast): 168 nM
- GI50 (SN12C renal): 49.1 nM
- TGI (SN12C renal): 554 nM
- GI50 (KM12 colon): 27.1 nM
- TGI (KM12 colon): 119 nM
- GI50 (HOP-92 NSCLC): 28.3 nM
- TGI (HOP-92 NSCLC): 168 nM
- GI50 (OVCAR-8 ovarian): 28 nM
- TGI (OVCAR-8 ovarian): 826 nM
- GI50 (NCI-H23 lung): 23 nM
- TGI (NCI-H23 lung): 108 nM
- GI50 (HT29 colon): 39.7 nM
- TGI (HT29 colon): 1120 nM
- GI50 (SF-295 CNS): 9.04 nM
- TGI (SF-295 CNS): 54.8 nM
- GI50 (SK-MEL-28 melanoma): 67.9 nM
- TGI (SK-MEL-28 melanoma): 159 nM
- GI50 (DU-145 prostate): 52.6 nM
- TGI (DU-145 prostate): 1370 nM
